Experimental data from publication PMC6628712 (Journal of enzyme inhibition and medicinal chemistry, 2016).

Tested on: not given
Assay: not given
Settings: unbound fraction in plasma; ref [64]–[73]; cited from earlier work
In the case of COc1cc(C(=O)NS(=O)(=O)c2ccccc2C)ccc1Cc1cn(C)c2ccc(NC(=O)OC3CCCC3)cc12 [Zafirlukast], the “fu,plasma” value is listed as 0.010.
In the case of CCc1oc2ccccc2c1C(=O)c1cc(Br)c(O)c(Br)c1 [Benzbromarone], the “fu,plasma” value is listed as 0.010.
In the case of C[C@@H]1C[C@H]2[C@@H]3CCC4=CC(=O)C=C[C@]4(C)[C@@]3(Cl)[C@@H](O)C[C@]2(C)[C@@]1(O)C(=O)CCl [Mometasone], the “fu,plasma” value is given as 0.010.
In the case of CC/C(=C(\c1ccccc1)c1ccc(OCCN(C)C)cc1)c1ccccc1 [Tamoxifen], the “fu,plasma” value is listed as 0.020.

Tested on: not given
Assay: not given
Settings: total plasma, clinically relevant dose as in column Oral Dose; ref [64]–[73]; cited from earlier work
In the case of CCc1ccc(CCOc2ccc(CC3SC(=O)NC3=O)cc2)nc1 (stereo not shown) [Pioglitazone], the Cmax is given as 4490 nM.
For CCOc1nc2cccc(C(=O)O)c2n1Cc1ccc(-c2ccccc2-c2nnn[nH]2)cc1 [Candesartan], the Cmax is listed as 270 nM.
For COc1cc(C(=O)NS(=O)(=O)c2ccccc2C)ccc1Cc1cn(C)c2ccc(NC(=O)OC3CCCC3)cc12 [Zafirlukast], the Cmax is given as 1120 nM.
In the case of CCc1oc2ccccc2c1C(=O)c1cc(Br)c(O)c(Br)c1 [Benzbromarone], the Cmax is listed as 9240 nM.
For C[C@@H]1C[C@H]2[C@@H]3CCC4=CC(=O)C=C[C@]4(C)[C@@]3(Cl)[C@@H](O)C[C@]2(C)[C@@]1(O)C(=O)CCl [Mometasone], the Cmax is given as 0.05 nM.
For CC/C(=C(\c1ccccc1)c1ccc(OCCN(C)C)cc1)c1ccccc1 [Tamoxifen], the Cmax is listed as 323 nM.

Biological target: T1, CYP26B1 (Homo sapiens, UniProt Q9NR63)
T1 sequence (Q9NR63 1-512): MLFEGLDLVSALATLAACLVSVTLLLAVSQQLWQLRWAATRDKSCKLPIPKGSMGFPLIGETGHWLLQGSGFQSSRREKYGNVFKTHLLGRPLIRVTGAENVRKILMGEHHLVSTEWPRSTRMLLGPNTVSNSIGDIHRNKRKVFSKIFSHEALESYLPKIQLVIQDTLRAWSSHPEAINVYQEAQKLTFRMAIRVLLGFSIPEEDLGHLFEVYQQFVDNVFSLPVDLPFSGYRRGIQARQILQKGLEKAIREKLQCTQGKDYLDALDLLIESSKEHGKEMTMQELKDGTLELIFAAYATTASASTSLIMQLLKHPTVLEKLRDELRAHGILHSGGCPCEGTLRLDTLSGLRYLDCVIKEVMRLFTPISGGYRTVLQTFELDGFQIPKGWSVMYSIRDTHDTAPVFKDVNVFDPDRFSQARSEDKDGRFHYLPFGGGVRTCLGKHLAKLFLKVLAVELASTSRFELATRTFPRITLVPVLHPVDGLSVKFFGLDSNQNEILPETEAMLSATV
Assay: Inhibition of CYP26B1-catalyzed tazarotenic acid sulfoxide formation
Assay type: biochemical
Settings: CYP26B1 IC50, tazarotenic acid, recombinant CYP26B1; probe tazarotenic acid sulfoxide formation; ± standard error
CCc1ccc(CCOc2ccc(CC3SC(=O)NC3=O)cc2)nc1 (stereo not shown) [Pioglitazone] gave an IC50 of 8.48 ± 1.19 µM.
CCOc1nc2cccc(C(=O)O)c2n1Cc1ccc(-c2ccccc2-c2nnn[nH]2)cc1 [Candesartan] gave an IC50 of 58.3 µM.
Compound COc1cc(C(=O)NS(=O)(=O)c2ccccc2C)ccc1Cc1cn(C)c2ccc(NC(=O)OC3CCCC3)cc12 [Zafirlukast] has an IC50 of 0.71 ± 0.23 µM.
With CCc1oc2ccccc2c1C(=O)c1cc(Br)c(O)c(Br)c1 [Benzbromarone] the IC50 was 7.57 ± 4.93 µM.
With CC/C(=C(\c1ccccc1)c1ccc(OCCN(C)C)cc1)c1ccccc1 [Tamoxifen] the IC50 was 14 ± 1.11 µM.

Same assay, conditions: read-out: CYP26B1 IC50, tazarotenic acid; recombinant CYP26B1; probe tazarotenic acid sulfoxide formation; ± standard error
C[C@@H]1C[C@H]2[C@@H]3CCC4=CC(=O)C=C[C@]4(C)[C@@]3(Cl)[C@@H](O)C[C@]2(C)[C@@]1(O)C(=O)CCl [Mometasone] showed an IC50 of 6.81 ± 1.19 µM.

Biological target: T2, CYP26A1 (Homo sapiens, UniProt O43174)
T2 sequence (O43174 1-497): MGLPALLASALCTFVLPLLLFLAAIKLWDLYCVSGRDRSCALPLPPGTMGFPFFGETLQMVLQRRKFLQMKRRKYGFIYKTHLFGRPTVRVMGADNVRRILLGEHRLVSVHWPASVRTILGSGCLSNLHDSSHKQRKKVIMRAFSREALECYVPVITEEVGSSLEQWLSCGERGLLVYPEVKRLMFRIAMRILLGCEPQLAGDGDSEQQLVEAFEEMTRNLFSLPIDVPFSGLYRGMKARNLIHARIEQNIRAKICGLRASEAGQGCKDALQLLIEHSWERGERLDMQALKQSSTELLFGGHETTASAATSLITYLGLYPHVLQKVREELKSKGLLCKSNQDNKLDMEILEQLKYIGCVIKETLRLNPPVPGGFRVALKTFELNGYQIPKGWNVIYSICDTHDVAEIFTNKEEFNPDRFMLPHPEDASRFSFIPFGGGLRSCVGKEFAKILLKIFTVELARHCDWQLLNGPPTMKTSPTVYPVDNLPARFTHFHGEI
Assay: Spectral binding determination, CYP26A1
Settings: UV-difference spectra
With COc1cc(C(=O)NS(=O)(=O)c2ccccc2C)ccc1Cc1cn(C)c2ccc(NC(=O)OC3CCCC3)cc12 [Zafirlukast] the “Binding mechanism, CYP26A1” value was “No binding spectra could be obtained”.

Biological target: T3, CYP2C8 (Homo sapiens, UniProt P10632)
T3 sequence (P10632 1-490): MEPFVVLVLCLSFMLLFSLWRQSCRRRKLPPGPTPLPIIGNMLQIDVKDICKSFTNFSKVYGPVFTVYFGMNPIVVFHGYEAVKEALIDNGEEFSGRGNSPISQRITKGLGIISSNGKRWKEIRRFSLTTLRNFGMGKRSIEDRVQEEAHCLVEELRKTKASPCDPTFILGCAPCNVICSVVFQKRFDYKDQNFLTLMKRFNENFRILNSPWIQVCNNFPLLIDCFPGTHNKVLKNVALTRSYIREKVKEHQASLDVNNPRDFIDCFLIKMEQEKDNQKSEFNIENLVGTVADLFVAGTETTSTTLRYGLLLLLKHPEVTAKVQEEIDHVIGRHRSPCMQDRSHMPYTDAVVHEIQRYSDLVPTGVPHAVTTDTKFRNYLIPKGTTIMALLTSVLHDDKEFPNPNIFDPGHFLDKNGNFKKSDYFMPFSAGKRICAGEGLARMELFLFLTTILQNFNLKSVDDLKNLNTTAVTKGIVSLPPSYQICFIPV
Assay: not given
Settings: read-out: CYP2C8 IC50; substrate amodiaquine; ref [51]; cited from earlier work
For CCc1ccc(CCOc2ccc(CC3SC(=O)NC3=O)cc2)nc1 (stereo not shown) [Pioglitazone], the IC50 is given as 11.7 ± 4 µM.
For CCOc1nc2cccc(C(=O)O)c2n1Cc1ccc(-c2ccccc2-c2nnn[nH]2)cc1 [Candesartan], the IC50 is listed as 36.2 ± 1.7 µM.
For COc1cc(C(=O)NS(=O)(=O)c2ccccc2C)ccc1Cc1cn(C)c2ccc(NC(=O)OC3CCCC3)cc12 [Zafirlukast], the IC50 is listed as 0.644 ± 0.273 µM.
In the case of C[C@@H]1C[C@H]2[C@@H]3CCC4=CC(=O)C=C[C@]4(C)[C@@]3(Cl)[C@@H](O)C[C@]2(C)[C@@]1(O)C(=O)CCl [Mometasone], the IC50 is listed as 0.813 ± 0.112 µM.
For CC/C(=C(\c1ccccc1)c1ccc(OCCN(C)C)cc1)c1ccccc1 [Tamoxifen], the IC50 is listed as 3.34 ± 1.55 µM.

Same assay, conditions: read-out: CYP2C8 IC50; substrate montelukast (HLM); ref [44]; cited from earlier work
In the case of CCc1oc2ccccc2c1C(=O)c1cc(Br)c(O)c(Br)c1 [Benzbromarone], the IC50 is given as 0.38 µM.

Tested on: not given
Assay: not given
Settings: human, in vivo
In the case of CCc1ccc(CCOc2ccc(CC3SC(=O)NC3=O)cc2)nc1 (stereo not shown) [Pioglitazone], the “Cmax,u” value is reported as 38.0 nM.
For CCOc1nc2cccc(C(=O)O)c2n1Cc1ccc(-c2ccccc2-c2nnn[nH]2)cc1 [Candesartan], the “Cmax,u” value was 0.38 nM.
With COc1cc(C(=O)NS(=O)(=O)c2ccccc2C)ccc1Cc1cn(C)c2ccc(NC(=O)OC3CCCC3)cc12 [Zafirlukast] the “Cmax,u” value was 3.00 nM.
With CCc1oc2ccccc2c1C(=O)c1cc(Br)c(O)c(Br)c1 [Benzbromarone] the “Cmax,u” value was 92.4 nM.
For C[C@@H]1C[C@H]2[C@@H]3CCC4=CC(=O)C=C[C@]4(C)[C@@]3(Cl)[C@@H](O)C[C@]2(C)[C@@]1(O)C(=O)CCl [Mometasone], the “Cmax,u” value was 0.0005 nM.
In the case of CC/C(=C(\c1ccccc1)c1ccc(OCCN(C)C)cc1)c1ccccc1 [Tamoxifen], the “Cmax,u” value is reported as 6.40 nM.

Biological target: T2, CYP26A1
Assay: Inhibition of CYP26A1-catalyzed tazarotenic acid sulfoxide formation
Assay type: biochemical
Settings: not given
CCc1oc2ccccc2c1C(=O)c1cc(Br)c(O)c(Br)c1 [Benzbromarone] showed an IC50 of 0.63 ± 0.06 µM.

Same assay, conditions: CYP26A1 IC50, tazarotenic acid, recombinant CYP26A1; probe tazarotenic acid sulfoxide formation; ± standard error
In the case of CCc1ccc(CCOc2ccc(CC3SC(=O)NC3=O)cc2)nc1 (stereo not shown) [Pioglitazone], the IC50 is reported as 0.93 ± 0.26 µM.
Work on CCOc1nc2cccc(C(=O)O)c2n1Cc1ccc(-c2ccccc2-c2nnn[nH]2)cc1 [Candesartan] yielded an IC50 of 25.6 ± 25.8 µM.
COc1cc(C(=O)NS(=O)(=O)c2ccccc2C)ccc1Cc1cn(C)c2ccc(NC(=O)OC3CCCC3)cc12 [Zafirlukast] gave an IC50 of 0.06 ± 0.02 µM.
With CC/C(=C(\c1ccccc1)c1ccc(OCCN(C)C)cc1)c1ccccc1 [Tamoxifen] the IC50 was 21.4 ± 20.3 µM.

Same assay, conditions: ratio of IC50 values, tazarotenic acid probe
In the case of COc1cc(C(=O)NS(=O)(=O)c2ccccc2C)ccc1Cc1cn(C)c2ccc(NC(=O)OC3CCCC3)cc12 [Zafirlukast], the “Selectivity for CYP26A1 (versus CYP26B1)” value is reported as 11.8 fold.

Same assay, conditions: read-out: CYP26A1 IC50, tazarotenic acid; recombinant CYP26A1; probe tazarotenic acid sulfoxide formation; ± standard error
With C[C@@H]1C[C@H]2[C@@H]3CCC4=CC(=O)C=C[C@]4(C)[C@@]3(Cl)[C@@H](O)C[C@]2(C)[C@@]1(O)C(=O)CCl [Mometasone] the IC50 was 0.9 ± 0.08 µM.

Tested on: CYP26A1
Assay: not given
Settings: in vitro; ref [97]; cited from earlier work
In the case of CC/C(=C(\c1ccccc1)c1ccc(OCCN(C)C)cc1)c1ccccc1 [Tamoxifen], the “Inhibition of CYP26A1-catalyzed 4-hydroxyretinoic acid formation” value is listed as “not be inhibitors”.
